Assay: Comparison of solubility: time required for complete dissolution of solid forms in pH 5.0 buffer
Assay type: physicochemical
Conditions: 25 mM potassium acetate buffer solution (pH 5.0), room temperature, concentration of 5 mg/mL, shaken at about 100 rpm
Protocol: (Comparison of Solubility)
Next, the length of time required to dissolve about […] of the solid forms of formula (I) compound at room temperature in a pH 5.0 acetic acid buffer solution were measured.
After adding, at room temperature, a 25 mM potassium acetate buffer solution (pH 5.0) to, respectively, 10 mg of the white crystals prepared in Example 7, 10 mg of the amorphous powder prepared in Example 10, and 5 mg of the amorphous mass prepared in Example 11 in order to make a concentration of 5 mg/mL in each sample, the length of time required for complete dissolution under shaken at about 100 rpm was measured.

time required for dissolution | Compound
about 10 seconds | CCC(O)C(C)C1OC1CC(C)(O)/C=C/C=C(\C)C1OC(=O)CC(O)CCC(C)(O)C(OC(=O)N2CCN(C3CCCCCC3)CC2)/C=C/C1C (stereo not drawn) [Amorphous powder, (8E,12E,14E)-7-{(4-cycloheptylpiperazin-1-yl)carbonyl}oxy-3,6,16,21-tetrahydroxy-6,10,12,16,20-pentamethyl-18,19-epoxytricosa-8,12,14-trien-11-olide]
about 215 seconds | CCC(O)C(C)C1OC1CC(C)(O)/C=C/C=C(\C)C1OC(=O)CC(O)CCC(C)(O)C(OC(=O)N2CCN(C3CCCCCC3)CC2)/C=C/C1C (stereo not drawn) [Amorphous mass, (8E,12E,14E)-7-{(4-cycloheptylpiperazin-1-yl)carbonyl}oxy-3,6,16,21-tetrahydroxy-6,10,12,16,20-pentamethyl-18,19-epoxytricosa-8,12,14-trien-11-olide]
about 32 seconds | CCC(O)C(C)C1OC1CC(C)(O)/C=C/C=C(\C)C1OC(=O)CC(O)CCC(C)(O)C(OC(=O)N2CCN(C3CCCCCC3)CC2)/C=C/C1C (stereo not drawn) [Crystals, (8E,12E,14E)-7-{(4-cycloheptylpiperazin-1-yl)carbonyl}oxy-3,6,16,21-tetrahydroxy-6,10,12,16,20-pentamethyl-18,19-epoxytricosa-8,12,14-trien-11-olide]

Reference: patent US7790887B2, “Macrolide compound in solid form, process for preparation thereof, and pharmaceutical composition containing the same” (Eisai R&D Management Co., Ltd., priority 2007, dated 2010)
